Results from paper doi:10.1101/717207v1 (bioRxiv, 2019).

Tests used:
[1] = Perturbation of DMPG membrane organization probed by DSC; assay type: physicochemical; conditions: DMPG MLVs 1 mg/mL in PBS, peptide-to-lipid ratio 1/50, 1°C/min, 0-50°C
[2] = Peptide binding to heparin studied by ITC; conditions: heparin into peptide, PBS, one site model, average of two experiments
[3] = Peptide binding to POPG LUVs studied by ITC; conditions: POPG LUVs into peptide, PBS, one site model, once or twice
[4] = Peptide secondary structure by ATR-FTIR in the absence or presence of heparin; assay type: physicochemical; conditions: for Percentage of structural elements: β-strand: ATR-FTIR amide I deconvolution, 1627 cm^-1; for Percentage of structural elements: Random coil / Percentage of structural elements: α-Helix / Percentage of structural elements: Turn: ATR-FTIR; for Percentage of structural elements: Random coil: 1643 cm^-1; for Percentage of structural elements: α-Helix: 1659 cm^-1; for Percentage of structural elements: Turn: 1679 cm^-1
[5] = +Hep (8.3 µM heparin, peptide per ITC stoichiometry)

Sequence	effect on DMPG bilayer organization (phase transitions) [1]	TΔS [2] [kcal/mol]	ΔH [2] [kcal/mol]	TΔS [3] [kcal/mol]	ΔH [3] [kcal/mol]	Percentage of structural elements: β-strand ([4]; peptide alone, 100 µM in PBS) [%]	Percentage of structural elements: Random coil [4, 5] [%]	Percentage of structural elements: Random coil ([4]; peptide alone, 100 µM in PBS) [%]	Percentage of structural elements: α-Helix [4, 5] [%]	Percentage of structural elements: α-Helix ([4]; peptide alone, 100 µM in PBS) [%]	Percentage of structural elements: Turn [4, 5] [%]	Percentage of structural elements: Turn ([4]; peptide alone, 100 µM in PBS) [%]
RRDWDWRRDWRR [Peptide R6DW3]	almost identical to that of aR6W3	-80.5	-91.1	6.2	-0.74	–	–	–	–	–	–	–
RRRRRRRRR [Peptide R9]	–	-60.5	-71.7	7.4	-0.60	–	–	–	–	–	–	–
RRRWRRWRR [aR7W2]	–	-86.3	-96.8	6.2	-0.84	22	20	18	26	25	37	35
RRWWRRWRR [aR6W3]	–	-105.6	-116.4	5.7	-1.39	13	24	17	28	30	40	40
RRWWRRWWR [aR5W4]	–	-165.9	-176.6	5.0	-2.53	11	20	24	30	29	30	36
RWRWRRRRR [nR7W2]	–	-82.9	-93.5	6.7	-0.81	–	–	–	–	–	–	–

Second part, the sequence after the results:

effect on DMPG bilayer organization (phase transitions) [1]	TΔS [2] [kcal/mol]	ΔH [2] [kcal/mol]	TΔS [3] [kcal/mol]	ΔH [3] [kcal/mol]	Percentage of structural elements: β-strand ([4]; peptide alone, 100 µM in PBS) [%]	Percentage of structural elements: Random coil [4, 5] [%]	Percentage of structural elements: Random coil ([4]; peptide alone, 100 µM in PBS) [%]	Percentage of structural elements: α-Helix [4, 5] [%]	Percentage of structural elements: α-Helix ([4]; peptide alone, 100 µM in PBS) [%]	Percentage of structural elements: Turn [4, 5] [%]	Percentage of structural elements: Turn ([4]; peptide alone, 100 µM in PBS) [%]	Sequence
–	-82.0	-92.3	6.7	-0.79	–	–	–	–	–	–	–	RRRRRRRRW [Peptide R8W1-2]
–	-71.5	-81.7	6.2	-0.72	–	–	–	–	–	–	–	RRRRWRRRR [Peptide R8W1-1]
–	-113.0	-123.3	6.5	-1.27	21	24	23	27	25	22	31	RRWRRRRWW [nR6W3]
–	-169.0	-179.3	5.7	-2.10	17	22	22	26	26	32	35	RWWWWRRRR [nR5W4]
